The values that follow come from patent US20230093099A1, “COMPOUNDS AND METHODS OF TREATING CANCERS” (CULLGEN (SHANGHAI), INC., priority 2019, published 2023).

Some results are limits rather than exact numbers.

In general, IC50 refers to the concentration needed to halve the response being measured. A high value points to weaker potency in that assay.

What all share (format): cell-based
Data set [1] relates to immortalized human lung fibroblast IMR-90 cells. In words: Cell viability of non-cancerous lung fibroblast IMR-90 cells. As to conditions: IMR-90, 3 days, 3-fold serial dilution (FIG. 6). As to the method: Immortalized human lung fibroblast IMR-90 and keratinocyte HACAT cells were treated with JA-189 or JA-213 for 3 days at indicated concentrations following a 3-fold serial dilution.
(§1) Cells were seeded at a density of 5000 cells per well in 96-well assay plates and treated with test compounds following a 8-point or 12-point 3-fold serial dilution. Three days later, cell viability was determined using the CellTiter-Glo assay kit according to the manufacturer's instructions. The dose-response curves were determined and IC50 values were calculated using the GraphPad Prism software following a nonlinear regression (least squares fit) method.

Another data set addresses T1, GSPT1 (Homo sapiens, UniProt P15170).
T1 construct: immunoblot of GSPT1 and tubulin expressed in RS4:11 cells; endogenous in cells; host or cells: RS4;11 cells
In words: Immunoblot of GSPT1 protein level in RS4;11 cells. As to conditions: 16 hours; for GSPT1 protein level: immunoblot (FIG. 5). As to the method: RS4;11 cells were treated with compounds at indicated concentrations for 16 hours. […] The concentrations required to reduce GSPT1 by 50% (DC50) were below 2 nM for compound JA-189 and 10 nM JA213.
(§2) HEL, RS4;11, MV4;11, Kasumi-1 and other cells were cultured at 37° C. with 5% CO2 in RPMI 1640 or DMEM Medium supplemented with 10% fetal bovine serum. Cells were authenticated using the short tandem repeat (STR) assays. Mycoplasma test results were negative.
(§3) Rabbit anti-JAK1 antibody (3344S), anti-JAK2 antibody (3230S), anti-JAK3 antibody (8827S), anti-TYK2 antibody (14193S), anti-FLT3 antibody (3462S), anti-RET antibody (14556S), anti-phospho-STAT3 (Tyr705) antibody (9145S) and anti-phospho-STAT5 (Tyr694) antibody (4322S) were purchased from Cell Signaling Technology. Rabbit anti-GSPT1 antibody (ab126090) was purchased from Abcam. HRP-conjugated anti-α-tubulin antibody was produced in house. Media and other cell culture reagents were purchased from Thermo Fisher. The CellTiter-Glo Luminescent Assay kit was purchased from Promega.
Cultured cells were washed with cold PBS once and lysed in cold RIPA buffer supplemented with protease inhibitors and phosphatase inhibitors (Beyotime Biotechnology). The solutions were then incubated at 4° C. for 30 minutes with gentle agitation to fully lyse cells. Cell lysates were centrifuged at 13,000 rpm for 10 minutes at 4° C. and pellets were discarded. Total protein concentrations in the lysates were determined by BCA assays (Beyotime Biotechnology). Cell lysates were mixed with Laemmli loading buffer to 1× and heated at 99° C. for 5 min. Proteins were resolved on SDS-PAGE and visualized by chemiluminescence. Images were taken by a ChemiDoc MP Imaging system (Bio-Rad). Protein bands were quantitated using the accompanied software provided by Bio-Rad.
(In general: Immunoblotting shows a protein as a band on a membrane.)

Another data set deals with MM.1S cells. In words: Cell viability assay (CellTiter-Glo) in MM.1S cells. As to conditions: Homo sapiens, MM1.S, 72 h, Multiple Myeloma, 3 days. As to the method: (§4) MV4;11, RS4;11, Kasumi-1, HEL and other cells were treated with NVP-BSK805, TG101209 or selected degraders for 3 days at indicated concentrations following a 3-fold serial dilution.
as §2, §1
On the technique in general: In ATP-based viability assays light output follows the ATP content of the culture.

Another data set relates to MOLT-4 cells. In words: Cell viability assay (CellTiter-Glo) in MOLT-4 cells. The following applies: Homo sapiens, 72 h, MOLT-4, T-ALL, 3 days. How it is done:
as §4, §2, §1

A further data set concerns MOLM-13 cells. In words: Cell viability assay (CellTiter-Glo) in MOLM-13 cells. The following applies: Homo sapiens, 72 h, MOLM-13, AML, 3 days. How it is done: as §4, §2, §1
For another data set, the system named is NOMO-1 cells. In words: Cell viability assay (CellTiter-Glo) in NOMO-1 cells. As to conditions: Homo sapiens, 72 h, NOMO-1, AML, 3 days. How it is done: as §4, §2, §1
A further data set relates to SU-DHL-1 cells. In words: Cell viability assay (CellTiter-Glo) in SU-DHL-1 cells. The following applies: Homo sapiens, 72 h, SU-DHL-1, large cell lymphoma, 3 days. As to the method:
as §4, §2, §1

A further data set concerns HEL cells. In words: Cell viability assay (CellTiter-Glo) in HEL cells. As to conditions: 3 days; for cell viability inhibition in combination with pomalidomide: pomalidomide at 10 μM (FIG. 4); for IC50: Homo sapiens, 72 h, erythroleukemia, cell viability. How it is done:
as §4, §2, §1

The target of another data set is T2, JAK3 (Homo sapiens, UniProt P52333).
T2 construct: immunoblot of JAK1/2/3 proteins expressed in HEL cells; endogenous in cells; host or cells: HEL cells
T2 sequence (P52333 1-1124): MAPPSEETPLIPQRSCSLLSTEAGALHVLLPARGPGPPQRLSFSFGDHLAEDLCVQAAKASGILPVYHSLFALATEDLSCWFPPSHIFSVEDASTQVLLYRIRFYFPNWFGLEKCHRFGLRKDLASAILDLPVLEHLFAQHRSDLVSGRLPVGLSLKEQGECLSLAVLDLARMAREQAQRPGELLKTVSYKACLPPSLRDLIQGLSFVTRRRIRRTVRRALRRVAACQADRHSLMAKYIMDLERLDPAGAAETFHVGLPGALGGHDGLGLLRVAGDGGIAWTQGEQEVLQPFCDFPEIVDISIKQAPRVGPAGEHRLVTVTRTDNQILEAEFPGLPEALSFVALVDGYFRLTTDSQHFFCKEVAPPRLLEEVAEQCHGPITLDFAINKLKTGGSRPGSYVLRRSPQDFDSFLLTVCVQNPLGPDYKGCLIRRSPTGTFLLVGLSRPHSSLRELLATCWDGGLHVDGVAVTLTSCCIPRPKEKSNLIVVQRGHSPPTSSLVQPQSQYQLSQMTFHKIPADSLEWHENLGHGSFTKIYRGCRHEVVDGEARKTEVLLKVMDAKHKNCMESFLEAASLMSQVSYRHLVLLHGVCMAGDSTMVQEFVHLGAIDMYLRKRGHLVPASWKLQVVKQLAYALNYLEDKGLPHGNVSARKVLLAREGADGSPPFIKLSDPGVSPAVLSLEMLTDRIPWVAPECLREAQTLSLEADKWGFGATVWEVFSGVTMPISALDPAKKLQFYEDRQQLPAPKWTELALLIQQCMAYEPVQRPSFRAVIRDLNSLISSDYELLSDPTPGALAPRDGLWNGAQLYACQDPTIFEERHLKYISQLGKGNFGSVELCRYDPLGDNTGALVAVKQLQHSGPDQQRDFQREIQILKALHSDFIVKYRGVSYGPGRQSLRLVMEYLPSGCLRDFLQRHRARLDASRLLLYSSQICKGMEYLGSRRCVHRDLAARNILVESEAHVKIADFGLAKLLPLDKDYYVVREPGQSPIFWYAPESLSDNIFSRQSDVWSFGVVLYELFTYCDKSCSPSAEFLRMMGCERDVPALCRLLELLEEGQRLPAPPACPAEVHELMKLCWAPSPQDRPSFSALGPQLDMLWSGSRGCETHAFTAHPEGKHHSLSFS
In words: Immunoblot of JAK3 protein level in HEL cells. The following applies: immunoblot (FIG. 1). As to the method:
To confirm JA-189 and JA-213 are true JAK degraders, HEL cell were treated with these two compounds at various compounds concentrations.
as §2, §3
Cultured cells were washed with cold PBS once and lysed in cold RIPA buffer supplemented with protease inhibitors and phosphatase inhibitors (Beyotime Biotechnology). […] Total protein concentrations in the lysates were determined by BCA assays (Beyotime Biotechnology). […] Protein bands were quantitated using the accompanied software provided by Bio-Rad.

T1 sequence (P15170 whole entry): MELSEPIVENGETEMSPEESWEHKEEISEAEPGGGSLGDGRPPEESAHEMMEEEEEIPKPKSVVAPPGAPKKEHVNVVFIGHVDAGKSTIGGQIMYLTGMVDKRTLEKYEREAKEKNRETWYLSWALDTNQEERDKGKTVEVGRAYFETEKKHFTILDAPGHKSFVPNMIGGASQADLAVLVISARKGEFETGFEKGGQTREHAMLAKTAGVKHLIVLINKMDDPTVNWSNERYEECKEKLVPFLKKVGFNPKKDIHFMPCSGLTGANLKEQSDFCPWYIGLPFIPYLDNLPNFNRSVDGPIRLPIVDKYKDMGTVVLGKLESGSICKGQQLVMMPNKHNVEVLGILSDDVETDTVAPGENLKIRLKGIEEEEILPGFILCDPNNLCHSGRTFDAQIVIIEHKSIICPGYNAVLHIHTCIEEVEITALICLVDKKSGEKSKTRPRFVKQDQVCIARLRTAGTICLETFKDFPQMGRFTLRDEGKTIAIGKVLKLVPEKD

Take `O=C1CCC(N2C(=O)c3ccc(NCCCCCC(=O)N4CCC(n5cc(-c6cnc7cccc(-c8cc(F)c(CN9CCOCC9)c(F)c8)c7n6)cn5)CC4)cc3C2=O)C(=O)N1` (stereo not drawn) [JA-189, 5-((6-(4-(4-(8-(3,5-difluoro-4-(morpholinomethyl)phenyl)quinoxalin-2-yl)-1H-pyrazol-1-yl)piperidin-1-yl)-6-oxohexyl)amino)-2-(2,6-dioxopiperidin-3-yl)isoindoline-1,3-dione]: the “sensitivity of non-cancerous cells (cell viability)” value in [1] is listed as “not sensitive”. For the same compound, on GSPT1, the GSPT1 protein level entry is recorded as “induced degradation of GSPT1 in a dose dependent manner”. Further, the DC50 on GSPT1 (immunoblot, read-out: concentration required to reduce GSPT1 by 50% (DC50)) is less than 2 nM. Moreover, the IC50 in the data set on MM.1S cells is 2.27 nM; with MOLT-4 cells, 6.36 nM; with MOLM-13 cells, 20.8 nM; in the data set on NOMO-1 cells, 53.2 nM; with SU-DHL-1 cells, 222 nM; in the data set with HEL cells, 177 nM. The “cell viability inhibition in combination with pomalidomide” value in the data set with HEL cells is “greatly reduce the potencies of the degraders”. The JAK3 protein level entry at JAK3 was “able to reduce JAK1, JAK2 and JAK3 protein levels”.

Turning to `CS(=O)(=O)c1ccc(-c2cccc3nc(Nc4ccc(N5CCN(CC(=O)NCCCCCCCCNc6ccc7c(c6)C(=O)N(C6CCC(=O)NC6=O)C7=O)CC5)cc4)nn23)cc1` (stereo not drawn) [JA-213], in [1], the “sensitivity of non-cancerous cells (cell viability)” value is reported as “not sensitive”. The GSPT1 protein level result at GSPT1 is on record as “induced degradation of GSPT1 in a dose dependent manner”. Moreover, the IC50 in the data set with MM.1S cells amounted to 23.1 nM; in the data set on MOLT-4 cells, 16.5 nM; in the data set with MOLM-13 cells, 27.4 nM; in the data set on NOMO-1 cells it was 81.7 nM; with SU-DHL-1 cells, 319 nM; in the data set on HEL cells it was 82.1 nM. Besides, the “cell viability inhibition in combination with pomalidomide” value with HEL cells is listed as “greatly reduce the potencies of the degraders”. For the same compound, the JAK3 protein level entry at JAK3 was “able to reduce JAK1, JAK2 and JAK3 protein levels”.
